The values below come from PMC7000521, “Hazard Characterization of Synthetic Cathinones Using Viability, Monoamine Reuptake, and Neuronal Activity Assays” (Frontiers in Neuroscience, 2020).

Read-outs that look alike come from different tables or passages of the source. Bounds are passed on as bounds.

As usually defined, the IC50 is the concentration at which inhibition is half-maximal.

For data set [1], the system named is rat primary cortical cultures. Description: MEA recordings of spontaneous neuronal network activity. It counts as cell-based. To be noted: for IC50: Rattus norvegicus, value [CI]; for Increased potency to inhibit neuronal activity (MSR, MBR, and MNBR) compared to cathinones lacking the lengthened alkyl chain: acute and prolonged exposure. Here is the method: Rat pups born of timed-pregnant Wistar rats (Envigo, Horst, Netherlands) were sacrificed on postnatal day 0–1 to prepare cortical cultures grown on MEA plates as described previously ([Zwartsen et al., 2018], [2019]). Briefly, a 50 μL drop of cell suspension was added to each well (1 × 10^5 cells/well) of a 48-well MEA plate (Axion BioSystems Inc., Atlanta, GA, United States, M768-GL1-30Pt200) coated with 0.1% polyethyleneimine (PEI). After 2 h, 450 μL dissection medium was added to each well. The day after the isolation (day in vitro 1; DIV1), 450 μL/well dissection medium was replaced with 450 μL/well glutamate medium. At DIV4, 450 μL/well glutamate medium was replaced with 450 μL/well FBS medium (for medium supplements see [Zwartsen et al., 2018], [2019]). Cultures were kept in FBS medium at 37°C, 5% CO2/95% air atmosphere until use at DIV9-10.
Microelectrode array recordings were performed as described in [Zwartsen et al. (2019)]. In short, neuronal activity was measured using a Maestro 768-channel amplifier (Axion BioSystems Inc., Atlanta, GA, United States). Baseline spontaneous neuronal activity was recorded for 30 min at 37°C, after which wells were exposed to selected synthetic cathinones under sterile conditions. Next, neuronal activity was determined during a 30 min “acute exposure” recording. […] Next, exposure medium was replaced with fresh FBS medium and the plate was incubated for 19 h at 37°C, until the 30 min “washout” recording, i.e., 24 h after the start of the exposure.
Effects of 3-MMC, 4-MMC, 4-MEC, pentedrone, 3-MMCinternet, and 4-MECinternet were tested at 1–1000 μM (final concentration). At the day of exposure, stocks and dilutions were freshly made in NB-A FBS medium (for medium supplements see [Zwartsen et al., 2019]). Data on methylone, α-PVP, and MDPV exposure have been published previously in [Zwartsen et al. (2019)]. For each experimental condition, primary cultures from two to three different isolations were used and tested in four to five plates (Nplates). The number of wells (nwells) represents the number of replicates per condition.
Microelectrode array data were analyzed as described in [Zwartsen et al. (2019)]. In short, parameters of interest after acute exposure were expressed as a percentage of the parameters prior to exposure to obtain a treatment ratio for each well (paired comparison; parameterexposure/parameterbaseline as % of control wells). The parameters after prolonged exposure and washout were also expressed as a percentage of the baseline parameters. Next, treatment ratios were grouped per parameter, condition, drug [e.g., mean spike rate (MSR) 10 μM 3-MMC] and exposure scenario (acute, prolonged, or washout).
Outliers (>mean ± 2×SD) for MSR (5.0%) were used to exclude wells on all parameters. Outliers for mean burst rate (MBR; 2.6%) and mean network burst rate (MNBR; 1.4%) were used to exclude wells on specific parameters (burst, network burst, and synchronicity parameters, or network burst and synchronicity parameters, respectively). Finally, the acute, prolonged, and washout control treatment ratios were set to 100% and treatment ratios of exposed wells were normalized to the average treatment ratio of medium control wells of the corresponding parameter and exposure scenario. Treatment ratios of exposed wells were averaged per parameter (e.g., MSR), condition (e.g., 100 μM), drug (e.g., methylone), and exposure scenario (e.g., acute exposure) and used for further statistical analyses [see [Zwartsen et al. (2019)] for more details on criteria, parameters, and exposure scenarios]. Neuronal activity (as % of control) is expressed as mean ± SEM of nwells from Nplates. As the spike, burst, and network burst rates were among the most sensitive parameters, these parameters are presented in the manuscript. Additional parameters are presented in Supplementary Figure 2.
Concentration–response curves were made for transporter, MEA, and cell viability assays. […]

Data set [2] can be described thus: Estimated human brain concentrations and comparison with IC50 values. To be noted: recreational human blood/serum/plasma concentration multiplied with BPF. The source says:
(§1) To correlate reported effect concentrations to expected concentrations in the human brain during recreational use a brain partitioning factor (BPF; […]) was applied, as actual human brain concentrations following recreational drug use are unknown. Expected concentrations in the human brain were estimated by multiplying recreational human blood/serum/plasma concentrations with the BPF. Human recreational blood, serum, or plasma levels were obtained from literature (driving under the influence or accidental non-fatal intoxications). The BPF was determined for each drug by dividing the brain concentration by the blood/serum/plasma concentration found in human post mortem reports, or animal studies (rat/mice) when human data were insufficient.
To identify the relevance of effects and potentially harmful drugs, effect concentrations (IC50 values) were related to the estimated human brain concentration during recreational use [(brain), Table 2]. By comparing these concentrations, the most relevant neurotoxic mechanisms of cathinones can be identified. […] Only 4-MEC and MDPV inhibited neuronal activity during acute exposure at concentrations within (MDPV) or close to (4-MEC) the estimated brain concentration.

For data set [3] the following is noted: recreational use (driving under the influence or accidental non-fatal intoxications); ref literature; cited from earlier work.
A short description of data set [4]: Brain partitioning factor (BPF). To be noted: brain concentration divided by blood/serum/plasma concentration from human post mortem reports or animal studies (rat/mice).
Excerpt: as §1

Where [5] appears, read: 0.5 h, acute exposure 30 min, read-out: Neuronal activity IC50, mean burst rate (MBR), acute.
Where [6] appears, read: 0.5 h, acute exposure 30 min, read-out: Neuronal activity IC50, mean network burst rate (MNBR), acute.
[7] abbreviates: 0.5 h, acute exposure 30 min, read-out: Neuronal activity IC50, mean spike rate (MSR), acute.
The mark [8] stands for this setting: 19 h washout, 24 h after start of exposure, read-out: Neuronal activity IC50, mean burst rate (MBR), recovery.
The mark [9] stands for this setting: 19 h washout, 24 h after start of exposure, read-out: Neuronal activity IC50, mean network burst rate (MNBR), recovery.
[10] abbreviates: 19 h washout, 24 h after start of exposure, read-out: Neuronal activity IC50, mean spike rate (MSR), recovery.
Where [11] appears, read: prolonged exposure 4.5 h, read-out: Neuronal activity IC50, mean burst rate (MBR), prolonged.
[12] abbreviates: prolonged exposure 4.5 h, read-out: Neuronal activity IC50, mean network burst rate (MNBR), prolonged.
[13] abbreviates: prolonged exposure 4.5 h, read-out: Neuronal activity IC50, mean spike rate (MSR), prolonged.

On to `CNC(C)C(=O)c1cccc(C)c1` (stereo not shown) [3-MMC, 2-(methylamino)-1-(3-methylphenyl) propan-1-one], for which the IC50 was 79 µM in data set [1] (setting [5]); 67 µM in data set [1] (setting [6]); 65 µM in data set [1] (setting [7]); over 1000 µM in data set [1] (setting [8]); over 1000 µM in data set [1] (setting [9]). In data set [2], the “Estimated human (brain) concentration” value was 0.005 to 9.0 µM. For the same compound, the “Human (serum/blood/plasma) concentration” value in data set [3] is given as 0.005–9.0^A,b,^c μM.

For the compound `CCNC(C)C(=O)c1ccc(C)cc1` (stereo not shown) [4-MEC, 2-(ethylamino)-1-(4-methylphenyl) propan-1-one], the half-maximal inhibitory concentration (IC50) is 74 µM in data set [1] (setting [5]); 68 µM in data set [1] (setting [6]); 73 µM in data set [1] (setting [7]); over 1000 µM in data set [1] (setting [8]); over 1000 µM in data set [1] (setting [9]); over 1000 µM in data set [1] (setting [10]). In addition, the “Estimated human (brain) concentration” value in data set [2] is 0.2 to 29 µM. Also, the “Human (serum/blood/plasma) concentration” value in data set [3] is 0.1–4.7^a^,d μM. The “Brain partitioning factor (BPF)” value in data set [4] is 1.5–6.2^4.

In the case of `CNC(C)C(=O)c1ccc(C)cc1` (stereo not shown) [4-MMC, 2-(methylamino)-1-(4-methylphenyl) propan-1-one], the IC50 is 118 µM in data set [1] (setting [5]); 120 µM in data set [1] (setting [6]); 101 µM in data set [1] (setting [7]); over 1000 µM in data set [1] (setting [8]); over 1000 µM in data set [1] (setting [9]); over 1000 µM in data set [1] (setting [10]). Moreover, the IC50 in data set [1] (setting [11]) was found to be 147 µM; in data set [1] (setting [12]), 167 µM; in data set [1] (setting [13]), 114 µM. Besides, the “Estimated human (brain) concentration” value in data set [2] was 0.04 to 37 µM. Besides, the “Human (serum/blood/plasma) concentration” value in data set [3] is listed as 0.05–6.0^a^,d,E,f μM. Further, the “Brain partitioning factor (BPF)” value in data set [4] is reported as 0.7–6.2^1,^–2,^3.

Turning to `CCCC(C(=O)c1ccc2c(c1)OCO2)N1CCCC1` (stereo not shown) [MDPV, 1-(1,3-benzodioxol-5-yl)-2-pyrro lidin-1-ylpentan-1-one], the “Increased potency to inhibit neuronal activity (MSR, MBR, and MNBR) compared to cathinones lacking the lengthened alkyl chain” value in data set [1] is recorded as “two to fourfold”. The “Estimated human (brain) concentration” value in data set [2] was 0.02 to 30 µM. Also, the “Human (serum/blood/plasma) concentration” value in data set [3] is 0.02–6.9^d,L,M,n μM. Further, in data set [4], the “Brain partitioning factor (BPF)” value is recorded as 0.8–4.4^4,11,12.

Regarding `CCCC(NC)C(=O)c1ccccc1` (stereo not shown) [Pentedrone, 2-(methylamino)-1-phenyl pentan-1-one], the IC50 in data set [1] (setting [5]) is 26 µM; in data set [1] (setting [6]) it was 23 µM; in data set [1] (setting [7]) it was 23 µM; in data set [1] (setting [11]), 28 µM; in data set [1] (setting [12]) it was 28 µM; in data set [1] (setting [13]) it was 27 µM. Besides, the “Increased potency to inhibit neuronal activity (MSR, MBR, and MNBR) compared to cathinones lacking the lengthened alkyl chain” value in data set [1] is reported as “two to fourfold”. Also, the “Neuronal activity following washout” value in data set [1] (highest concentration (1000 μM), washout 24 h after start of exposure) is listed as “remained fully inhibited”. In data set [2], the “Estimated human (brain) concentration” value was 0.06 to 3.0 µM. Besides, in data set [3], the “Human (serum/blood/plasma) concentration” value is reported as 0.04–1.9^a^,d,I μM. For the same compound, the “Brain partitioning factor (BPF)” value in data set [4] is given as 1.6^8.
